Results published in patent publication US8440710B2, “HSL inhibitors useful in the treatment of diabetes” (Hoffmann-La Roche Inc., priority 2009, dated 2013).

Biological target: T1, human HSL (Homo sapiens, UniProt Q05469)
T1 construct: generate a full length human HSL ORF with a 3′-His6 tag; made in house; host or cells: High 5 insect cells (baculovirus, pFast-BAC)
T1 sequence (Q05469 1-1076): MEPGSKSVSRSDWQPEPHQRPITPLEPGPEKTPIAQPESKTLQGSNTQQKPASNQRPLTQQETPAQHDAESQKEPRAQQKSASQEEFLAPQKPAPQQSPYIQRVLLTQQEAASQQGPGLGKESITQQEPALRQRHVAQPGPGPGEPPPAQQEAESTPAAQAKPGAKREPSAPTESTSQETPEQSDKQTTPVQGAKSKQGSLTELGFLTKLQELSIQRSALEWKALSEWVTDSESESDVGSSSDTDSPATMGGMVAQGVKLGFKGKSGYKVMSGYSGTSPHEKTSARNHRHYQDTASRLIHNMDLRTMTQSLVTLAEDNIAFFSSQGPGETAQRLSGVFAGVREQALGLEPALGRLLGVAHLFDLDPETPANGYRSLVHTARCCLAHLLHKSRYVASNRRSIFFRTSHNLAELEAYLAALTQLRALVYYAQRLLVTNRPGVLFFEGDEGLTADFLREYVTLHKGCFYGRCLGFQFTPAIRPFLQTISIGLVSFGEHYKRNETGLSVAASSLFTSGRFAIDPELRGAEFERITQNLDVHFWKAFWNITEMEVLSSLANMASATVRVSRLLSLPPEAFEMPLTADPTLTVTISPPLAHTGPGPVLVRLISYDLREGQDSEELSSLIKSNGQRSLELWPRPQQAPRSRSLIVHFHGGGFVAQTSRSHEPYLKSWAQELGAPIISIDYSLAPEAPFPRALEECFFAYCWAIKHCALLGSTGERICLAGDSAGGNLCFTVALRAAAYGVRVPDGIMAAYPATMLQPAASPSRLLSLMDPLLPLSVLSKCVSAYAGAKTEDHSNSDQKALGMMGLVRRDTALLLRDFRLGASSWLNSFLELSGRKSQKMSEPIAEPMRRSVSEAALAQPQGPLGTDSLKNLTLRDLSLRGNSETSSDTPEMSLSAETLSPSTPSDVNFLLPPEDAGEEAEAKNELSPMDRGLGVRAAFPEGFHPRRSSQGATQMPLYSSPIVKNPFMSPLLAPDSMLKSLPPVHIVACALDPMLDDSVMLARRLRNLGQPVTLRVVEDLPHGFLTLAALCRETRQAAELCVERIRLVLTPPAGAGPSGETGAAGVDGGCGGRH
Test: Human Hormone-Sensitive Lipase (HSL) enzyme inhibition assay (colorimetric, DMPT substrate)
Format: biochemical
Details: human full length HSL-His6, 2,3-dimercapto-1-propanol tributyrate substrate, 37° C. 20 minutes, absorbance at 405 nm; read-out: HSL hum IC50
Outline: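 Full-length human HSL with C-terminal His6, expressed in baculovirus-infected High 5 cells and Ni-NTA purified, was added (15 ug/ml stock) to 1.5 mM DMPT in 100 mM MOPS pH 7.2, 0.2 mg/ml fatty acid-free BSA containing compound. After 20 min at 37 °C, DTNB with SDS/Triton X-100 was added; A405 read after 15 min at RT.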

Structure (SMILES)	IC50
CCC(CC)OC[C@]1(O)CC[C@]2(CCN(c3ccc(O[C@@H](C)C(F)(F)F)nc3)C2=O)CC1 [Example 328, (5α,8α)-8-(1-Ethyl-propoxymethyl)-8-hydroxy-2-[6-((S)-2,2,2-trifluoro-1-methyl-ethoxy)-pyridin-3-yl]-2-aza-spiro[4.5]decan-1-one]	10 nM
COC[C@]1(O)CC[C@]2(CCN(c3ccc(OC(C)C)nc3)C2=O)CC1 [Example 329, (5α,8α)-8-Hydroxy-2-(6-isopropoxy-pyridin-3-yl)-8-methoxymethyl-2-aza-spiro[4.5]decan-1-one]	170 nM
CCOC[C@]1(O)CC[C@]2(CCN(c3ccc(OC(C)C)nc3)C2=O)CC1 [Example 330, (5α,8α)-8-Ethoxymethyl-8-hydroxy-2-(6-isopropoxy-pyridin-3-yl)-2-aza-spiro[4.5]decan-1-one]	40 nM
CCCS(=O)(=O)C[C@]1(O)CC[C@]2(CCN(c3ccc(C(C)(C)C)cc3)C2=O)CC1 [Example 331, (5α,8α)-2-(4-tert-Butyl-phenyl)-8-hydroxy-8-(propane-1-sulfonylmethyl)-2-aza-spiro[4.5]decan-1-one]	12 nM
CC(C)CS(=O)(=O)C[C@]1(O)CC[C@]2(CCN(c3ccc(C(C)(C)C)cc3)C2=O)CC1 [Example 332, (5α,8α)-2-(4-tert-Butyl-phenyl)-8-hydroxy-8-(2-methyl-propane-1-sulfonylmethyl)-2-aza-spiro[4.5]decan-1-one]	7 nM
CC(C)S(=O)(=O)C[C@]1(O)CC[C@]2(CCN(c3ccc(C(C)(C)C)cc3)C2=O)CC1 [Example 333, (5α,8α)-2-(4-tert-Butyl-phenyl)-8-hydroxy-8-(propane-2-sulfonylmethyl)-2-aza-spiro[4.5]decan-1-one]	8 nM
CC(C)(C)c1ccc(N2CC[C@]3(CC[C@@](O)(CS(=O)(=O)C(C)(C)C)CC3)C2=O)cc1 [Example 334, (5α,8α)-2-(4-tert-Butyl-phenyl)-8-hydroxy-8-(2-methyl-propane-2-sulfonylmethyl)-2-aza-spiro[4.5]decan-1-one]	8 nM
CCCS(=O)(=O)C[C@]1(O)CC[C@]2(CCN(c3ccc(OC(C)C)nc3)C2=O)CC1 [Example 335, (5α,8α)-8-Hydroxy-2-(6-isopropoxy-pyridin-3-yl)-8-(propane-1-sulfonylmethyl)-2-aza-spiro[4.5]decan-1-one]	50 nM
O=C1N(c2ccc3c(c2)OC(F)(F)O3)CC[C@]12CC[C@@](O)(C(F)(F)F)CC2 [Example 336, (5α,8α)-2-(2,2-Difluoro-benzo[1,3]dioxol-5-yl)-8-hydroxy-8-trifluoromethyl-2-aza-spiro[4.5]decan-1-one]	210 nM
CC[C@]1(O)CC[C@]2(CCN(c3ccc4c(c3)OC(F)(F)O4)C2=O)CC1 [Example 337, (5α,8α)-2-(2,2-Difluoro-benzo[1,3]dioxol-5-yl)-8-ethyl-8-hydroxy-2-aza-spiro[4.5]decan-1-one]	80 nM
CC(=O)[C@]1(O)CC[C@]2(CCN(c3ccc(OCC(F)(F)F)cc3)C2=O)CC1 [Example 338, (5α,8α)-8-Acetyl-8-hydroxy-2-[4-(2,2,2-trifluoro-ethoxy)-phenyl]-2-aza-spiro[4.5]decan-1-one]	250 nM
CC(C)(O)[C@]1(O)CC[C@]2(CCN(c3ccc(OCC(F)(F)F)cc3)C2=O)CC1 [Example 339, (5α,8α)-8-Hydroxy-8-(1-hydroxy-1-methyl-ethyl)-2-[4-(2,2,2-trifluoro-ethoxy)-phenyl]-2-aza-spiro[4.5]decan-1-one]	120 nM
O=C1N(c2ccc(C3CC(F)(F)C3)cc2)CC[C@]12CC[C@@](O)(C(F)(F)F)CC2 [Example 340, (5α,8α)-2-[4-(3,3-Difluoro-cyclobutyl)-phenyl]-8-hydroxy-8-trifluoromethyl-2-aza-spiro[4.5]decan-1-one]	40 nM
O=C1N(c2ccc(C3CC(F)(F)C3)cc2)CC[C@]12CC[C@](O)(C(F)(F)F)CC2 [Example 341, (5α,8β)-2-[4-(3,3-Difluoro-cyclobutyl)-phenyl]-8-hydroxy-8-trifluoromethyl-2-aza-spiro[4.5]decan-1-one]	1350 nM
